Measurements: patent US11945881B2, “Neoantigens expressed in ovarian cancer and their uses” (Janssen Biotech, Inc., priority 2020, dated 2024)

What was measured:
[1] = test system: CD8+ T cells; assay: exogenous autologous normal donor restimulation assay, TNFα/IFNγ double positive CD8+ T cells by flow cytometry; assay type: cell-based, human; settings: for Fold change (CD8+) vs. DMSO: maximum CD8+ T-cell response (TNFα and IFNγ); for Fold change (CD8+) vs. DMSO / Frequency (TNFα + IFNγ + CD8 T cells): donor independent, peptide pool 10 μg/mL, healthy donors; for Frequency (TNFα + IFNγ + CD8 T cells): maximum CD8+ T-cell response; for Immunogenic (yes/no): positive if CD8+ and/or CD4+ double positive TNFα/IFNγ frequency >=3-fold over DMSO and at least 0.01%
Experimental: (§1) The immunogenicity of neoantigens was assessed using the exogenous autologous normal donor restimulation assay. […] The lyophilized peptides were solubilized in 100% DMSO.
(§2) CD1c+ Dendritic Cells (CD1c+DC) isolated from human healthy PBMCs were thawed using media (IMDM (Gibco) supplemented with glutamine, HEPES, 5% human serum (Sigma), and 1× Pen-Strep). DC cells were resuspended in media supplemented with IL-4 (Peprotech, 20 ng/mL) and GM-CSF (Gibco, 20 ng/mL), plated in 6 well microplates, and rested overnight at 37° C. and 5% CO2 incubator. The following day, DC cells were counted and plated in a 96 well round bottom microplate at a concentration of 30,000 viable cells per well. Lyophilized neoantigen peptide pools (15-mer peptides with 8-mer overlapping peptide sequences) were solubilized in 100% DMSO with a stock concentration of 20 mg/mL Neoantigen peptides pools were added to DCs for a final concentration of 10 μg/mL and rested for 2 hours at 37° C. and 5% CO2 incubator. CEF Peptide Pool “Plus” (Cellular Technologies, Ltd.) was utilized as a positive control (each viral peptide at a final concentration of 4 ug/ml) and DMSO at the same final concentration (0.05%) as the experimental peptides was utilized as a negative control. After 2 hours, DC cells were irradiated with 50 gray of ionizing radiation. Autologous CD3+ Pan-T cells isolated from human normal PBMCs were thawed using media. Following irradiation, autologous Pan-T cells were added to the irradiated DCs at 300,000 viable cells per well. Human IL-15 (Peprotech) was added to all wells at final concentration of 10 ng/ml. Plates were incubated at 37° C. and 5% CO2 incubator for a total of 12 days. Media was refreshed every 2-3 days with IL-15 (R&D System, 10 ng/mL final concentration) and IL-2 (R&D systems, 10 IU/mL final concentration).
(§3) On Day 11, cells were re-stimulated with identical experimental peptide pools or controls, at same concentration as peptide stimulation on Day 1. Protein Inhibitor Cocktail (eBioscience) was added to every well and plate was incubated overnight for 14-16 hours at 37° C. and 5% CO2 incubator. On Day 12, cells were stained for surface and intracellular flow cytometry analysis. The cells were washed with PBS and stained with Live/Dead Fixable Aqua Dead Cell stain (Thermo-Fisher). Following the live/dead stain, cells were blocked using Biotin-Fre Fc Receptor Blocker (Accurate Chemical & Scientific Corp). Extracellular cellular flow panel ([…] per well in 50 μL) consisted of CD3 PerCP-Cy5.5 (Biolegend), CD4 BV421 (Biolegend), and CD8 APC-Cy7 (Biolegend). After extracellular staining, cells were fixed and permeabilized using Foxp3/Transcription Factor Staining Buffer Set (eBioscience) and stained for intracellular proteins (1:50 dilution) using TNFα FITC (R&D Systems) and IFNγ BV785 (Biolegend). Cells were washed and resuspended in stain buffer, analyzed, and recorded in a BD Celesta flow cytometer.
(§4) Flow cytometry analysis was conducted on FlowJo v10.6 software. Cells were gated on live, singlet, CD3+, CD4+ and CD8+ T cells. The CD8+ and CD4+ T cells were analyzed for TNFα and IFNγ expression.
(§5) The immunogenicity of neoantigens was first investigated in 9-16 healthy donors.

[2] = test system: CD4+ T cells; assay: exogenous autologous normal donor restimulation assay, TNFα/IFNγ double positive CD4+ T cells by flow cytometry; assay type: cell-based, human; settings: donor independent, peptide pool 10 μg/mL, healthy donors; for Fold change (CD4+) vs. DMSO: maximum CD4+ T-cell response (TNFα and IFNγ); for Frequency (TNFα + IFNγ + CD4 T cells): maximum CD4+ T-cell response
Experimental: as §1, §2, §3, §4, §5

| Sequence | Fold change (CD8+) vs. DMSO [1] [fold] | Frequency (TNFα + IFNγ + CD8 T cells) [1] [%] | Immunogenic (yes/no) [1] | Fold change (CD4+) vs. DMSO [2] [fold] | Frequency (TNFα + IFNγ + CD4 T cells) [2] [%] |
| --- | --- | --- | --- | --- | --- |
| TRSLDDLEKLDTLCCKLSVHVT [AS33, neoantigen, alternative splicing of RGS12] | 6958.6 | 43.7 | Yes | 32.24 | 0.28 |
| LCAISVDRCAALPARAPAPPRPARRPHRGLCAVRRPLGAPRRFVAVAVP [AS159, neoantigen, alternative splicing of DRD4] | 39.04 | 0.12 | Yes | 12.5 | 0.081 |
| VEDEEKKEPDGAQRHLVDIGGSHQTSHAEKFLFLLCPPVV [AS90, neoantigen, alternative splicing of ACIN1] | 28.95 | 0.1 | Yes | 4.93 | 0.044 |
| STLNITLSFDSHHGHHPVSVI [FUS6, neoantigen, gene fusion PKHD1L1->EBAG9] | 4.47 | 0.096 | yes | 26.51 | 0.11 |
| RYWTPATSSEYSNL [AS143, neoantigen, alternative splicing of MUC16] | 12.1 | 0.13 | Yes | 3.6 | 0.033 |
| MSQESDKNGLSSRSWMNTWILPEVL [AS102, neoantigen, alternative splicing of GRHL2] | 5.65 | 0.096 | Yes | 4.47 | 0.029 |
| NLQLLTQGYSGIWRYP [AS118, neoantigen, alternative splicing of SAMD12] | 2.42 | 0.038 | Yes | 5.25 | 0.034 |
| CDPAAPRAVSLPGRQGSEGGEGRGLGSRPAVLGRHSSGEGGGPWGELP [AS133, neoantigen, alternative splicing of HRAS] | 171.88 | 0.84 | Yes | 54.15 | 0.16 |
| RGGRGAQENSLD [FUS10, neoantigen, gene fusion SCNN1A->TNFRSF1A] | 896.55 | 19.5 | yes | 20.13 | 0.072 |
| GGLTLGARNTLTHGSPGPSQATVAVAPLSGRAAVSAAGGCVFLLLPACVPRRCHWIP [FUS16, neoantigen, gene fusion NDUFA11->FUT5] | 261.6 | 5.69 | yes | 12.58 | 0.045 |
| CLRPSLSLASRGFQNP [AS88, neoantigen, alternative splicing of UPK3B] | 3.13 | 0.063 | Yes | 15.85 | 0.062 |
| VLTVTSTDQEYLDLSAP [AS44, neoantigen, alternative splicing of FGFR3] | 85.94 | 0.33 | Yes | 13.45 | 0.067 |
| HFECYHCEIRIPRKSNGIRGFLLTWRRDGNTSTSVQQTTSSL [FUS11, neoantigen, gene fusion AJUBA->HAUS4] | 3.3 | 0.071 | yes | 39.13 | 0.14 |
| LSPGGACVDIDECDRQ [AS81, neoantigen, alternative splicing of FBN3] | 10.83 | 0.1 | Yes | 3.22 | 0.028 |
| LLFFVAGEVLRHEEFE [FUS15, neoantigen, gene fusion NXN->GLOD4] | 8.84 | 0.19 | yes | 16.21 | 0.08 |
| LDLAGNARPCRSQSPTSSDQTPSVPSLGSPELPDGEEGGSPDGSPQESEQVRQGQHV [AS103, neoantigen, alternative splicing of GTF2IRD1] | 48.82 | 0.83 | Yes | 6.62 | 0.086 |
| QTDFAYDSGKRLGWGRVACDQVFS [AS3, neoantigen, alternative splicing of ETV4] | 133.13 | 0.43 | Yes | 7.31 | 0.1 |
| RRHGEVQGLLEREKTARGNPSG [AS72, neoantigen, alternative splicing of SMC1B] | 8.6 | 0.23 | Yes | 4.15 | 0.036 |
| APSCGVSRAICDRGCH [AS79, neoantigen, alternative splicing of FBN3] | 2.88 | 0.076 | Yes | 5.85 | 0.12 |
| KHHLWALEAAWLSGRSPLSEPQLPLQPSGNSSSV [AS120, neoantigen, alternative splicing of STRA6] | 6.24 | 0.067 | Yes | 2.01 | 0.013 |
| MAGGVLRRLLCREPDRDGDKGASREETVVPLHIGDPVVLPGIGQCYSALF [FUS1, neoantigen, gene fusion TSTD1->F11R] | 2.79 | 0.06 | yes | 5.43 | 0.011 |
| SMMEGVIQLSFKAIVCLLSCLDLLSLFRVVRHLS [AS94, neoantigen, alternative splicing of AFDN] | 1080.99 | 9.61 | Yes | 62.76 | 0.098 |
| FQETWLAEDAAAGALSPCTIPTPPQPPLLSLPTSSGTRQ [AS97, neoantigen, alternative splicing of ETV4] | 433.66 | 1.34 | Yes | 6.12 | 0.15 |
| QLNLSETQFAQYAEIV [FUS2, neoantigen, gene fusion VAX2->ATP6V1B1] | 593.75 | 2.28 | yes | 21.76 | 0.026 |
